What was measured:
[1] = tested on: bovine choroidal microvascular endothelial cells (BCEC); experiment: BCEC proliferation assay; type: cell-based
Experimental: Proliferation assays with BCECs and BRECs were performed. Log-phase growing BCECs or BRECs (passage <10) were trypsinized, re-suspended and seeded in 96-well plates (no coating) in low-glucose DMEM supplemented with 10% bovine calf serum, 2 mM glutamine, and antibiotics (growth medium), at a density of 1200-1500 cells per well in 200 μl volume. All reagents were added at the indicated final concentrations. […] Fluorescence was measured at 530 nm excitation wavelength and 590 nm emission wavelength. The experiments were repeated at least three times. […] On each 96-well plate, untreated and VEGF-treated (10/ng/ml) wells were included to monitor plate-to-plate variations. 20% methanol or 0.05% DMSO served as negative controls. 0.05% DMSO served as negative controls when Cas was tested in these cells. Human […] and human adult […] were split into Gelatin-coated 96 wells (2000 cells per well) in low glucose DMEM containing 10% FBS. 1200 cells/well was set up for proliferation assay in low glucose media containing FBS. […] HUVEC (p7-10) were grown on gelatin-coated plate until it reached 70-80% confluency. On the day of the assay, cells were dissociated with 0.05% trypsin, which was neutralized with 0.5% FBS-containing EBM. Cells were briefly spun and then re-suspended in 0.5% FBS-media. Cells were counted and plated in 96-well, 1000 cells/well. Triplicate wells were used for each treatment. Data were collected at day 3, and then cells were fixed in 4% paraformaldehyde for 15 min before adding crystal violet. Cell-covered areas were quantified after taking pictures by Image J software.

skin wound = experiment: Skin wound healing model (splinted wound); type: in vivo, mouse; conditions: day 4; topical 20 μg daily
Excerpt: The model has been previously described. Briefly, C57BL/6 female mice (8-10 weeks old) were obtained from Jackson labs (Sacramento, CA). A fresh, full-thickness punch wound (4 mm diameter) using a punch (Acu Punch, Acuderm inc. Ft. Lauderdale, FL) splinted with a sterile neoprene ring (6-mm outer diameter and 4-mm inner diameter), fastened with 5-6 sutures (4-0 nylon) under the influence of Isoflurane was created on the back of the animal in a Class II Biological Safety Cabinet. For all surgical procedures, sterile technique was followed. Buprenorphine was given subcutaneously prior to awakening from anesthesia for anticipated pain. Mice were monitored until fully awake and were housed individually to minimize damage/biting/fighting to the surgical site. […] Treatment agents were prepared in PBS, sterile-filtered and 25 μl solution was applied daily directly to a wound bed for the first 4-5 days under the influence of Isoflurane, followed by daily observation. Wound closure was monitored by regular imaging and the wound area was quantified using ImageJ (National Institutes of Health, Bethesda, MD, USA). […] Epithelial gap was measured histomorphometrically using AxioVision LE Rel.4.4 software. […] Small vessels stained positive for CD31 were counted microscopically on 10 fields (20×) taken around the wound.

VEGFR2 = experiment: Western blot of VEGFR2 molecular mass in BCECs and BRECs; type: cell-based, bovine; conditions: BCECs and BRECs
Experimental: Glycerol-free PNGase F was obtained from New England Biolabs (Ipswich, MA). Briefly, BCECs were lysed with NP-40 containing proteinase inhibitors (Thermo Scientific, Waltham, MA). Lysates were cleared at 4° C. at 5000 g for 25 mins. Total protein content was measured using Pierce BCA protein assay kit (ThermoScientific). […] of protein was mixed with 10× denaturing buffer and H2O to a total volume of […]. Glycoproteins were denatured at 100° C. for 10 mins, followed by adding Glycobuffer and PNGase F. The reaction was carried out at 37° C. for 2 hr.
(§1) Cells were allowed to reach ˜80% confluency in 12-well plates. […] At various time points, plates were taken out of the incubator and kept on ice. Cell monolayers were first washed once with ice-cold PBS before lysis with 250 μl of Pierce RIPA buffer (ThermoFisher Scientific, Rockford, IL) or use 50 mM Tris-HCl (pH 7.6), 150 mM NaCl, 10% Glycerol, 1% NP-40 containing protease/Phosphatase inhibitor cocktail (100×) (Cell signaling, #5872). Lysates were collected and mixed with 4×Bolt LDS Sample Buffer (Novex, Carlsbad, CA) in the presence of Halt protease inhibitors and phosphatase inhibitor cocktail (ThermoFisher scientific, #NP0007). The samples were subjected to SDS-PAGE (Bolt 4-12% Bis-Tris Plus, Invitrogen) using Bolt MES SDS running buffer or NuPAGE 3-8% Tris-Acetate gel using Tris-Acetate SDS running buffer (Novex). HUVECs (passage 6-8) were plated in EBM-2 basal medium (Lonza) with 0.2% FBS. […] Equal amounts of protein lysates were analyzed by SDS-PAGE and blotted with the indicated antibodies. Proteins were transferred using Tris-Glycine buffer with 20% Methanol (Proteonomics grade) (Apex BioResearch Products). Membranes were first incubated with 5% milk in TBST, pH 7.6 (TEKnova, Hollister, CA), followed by blotting with primary and secondary antibodies. ECL anti-rabbit IgG, horseradish peroxidase linked whole antibody from donkey or sheep anti-mouse were obtained from GE Healthcare (UK limited). SuperSignal West Dura Extended Duration substrate was from ThermoFisher Scientific. In some cases, the same PVDF membranes were stripped by 8-min incubation in the Restore Plus Western Blot Stripping Buffer (ThermoFisher Scientific) to show total specific protein expression, followed by second stripping for β-actin expression.

[2] = tested on: BCEC confluent monolayers; experiment: BCEC scratch assay; type: cell-based, bovine; conditions: 40 uM ManN or 50 ng/ml of VEGF; after 48 hours
Experimental: BCECs (passage 6-10) and HUVEC (passage 6-8) were used in this assay. Cells were grown until about 80% confluency in 6-well plates, washed twice with PBS and then starved in serum-free DMEM (low Glucose, Hyclone) for 5 hrs before making a “scratch” using 1 ml tip. Cell monolayers were briefly washed once with serum-free media, followed by various treatments in media containing 1% FBS. 48 hrs later, the assay was stopped by adding 2 ml 4% paraformaldehyde. 20 min later, fixed cells were stained with 1 ml Crystal Violet (Sigma). Plates were washed gently under the running tap water and air-dried before taking pictures. Images were acquired by ZEISS Discovery […] microscopy equipped with […] camera. Quantification of wound closure was done using AxioVision LE Rel.4.4 software. Six images were taken for each sample and six measurements (in pixel) were made on each image using AxioVision LE Rel.4.4 software.

Bip, CHOP and ATF-6 = experiment: Western blot of UPR responsive proteins in BCECs; type: cell-based, bovine; conditions: growing cells deprived of growth factor supply
Experimental: as §1

VEGF
fold increase in cell proliferation ([1]; 5 ng/ml VEGF): 4-5 fold
dependence of VEGF activity on glycolysis ([1]; glucose-free media): not dependent on the glycolysis pathway
average closure of the wound (skin wound): 66.9%
effect on apparent molecular mass of VEGFR2 (VEGFR2): no effect
closure of the scratched area compared to control [2]: significantly accelerated
Bip expression (Bip, CHOP and ATF-6): not
